The target in experiment [1] is T1, 5-HT1A receptor (Homo sapiens, UniProt P08908).
T1 sequence (P08908 1-422): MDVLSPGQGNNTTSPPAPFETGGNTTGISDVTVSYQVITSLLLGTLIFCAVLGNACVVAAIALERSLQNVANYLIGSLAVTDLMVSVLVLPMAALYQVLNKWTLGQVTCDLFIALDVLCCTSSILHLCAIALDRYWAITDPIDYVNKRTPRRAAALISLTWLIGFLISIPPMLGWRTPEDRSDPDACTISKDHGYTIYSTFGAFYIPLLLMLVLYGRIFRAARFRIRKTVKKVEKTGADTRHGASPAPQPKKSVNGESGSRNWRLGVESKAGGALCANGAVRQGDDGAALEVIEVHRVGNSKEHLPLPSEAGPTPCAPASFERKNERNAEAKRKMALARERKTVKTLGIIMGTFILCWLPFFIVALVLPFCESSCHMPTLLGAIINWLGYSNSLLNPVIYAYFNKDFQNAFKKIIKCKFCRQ
As to the kind of experiment: 5-HT1A receptor affinity: displacement of [3H] 8-OH-DPAT. In kind it is binding. Also on record: expressed in transfected cells. The note with it: displacement of [3H] 8-OH-DPAT; CHO cells stably transfected with human 5-HT1A receptors; read-out: 5-HT1A Receptor Affinity Ki.

Experiment [2] addresses T2, cloned human 5-HT1A receptors (Homo sapiens, UniProt P08908).
T2 construct: expressed in transfected cells
T2 sequence (P08908 1-422): T1 sequence (P08908 1-422)
As to the kind of experiment: 35S-GTPγS binding assay, 5-HT1A function. The class given is biochemical. The note with it: for pIC50: antagonist potency, reversal of 8-OH-DPAT, read-out: 5-HT1A Function GTPγS IC50; for pEC50: agonist potency. In general terms: GTPγS is a poorly hydrolysed GTP analogue; its binding reports G protein activation.

Experiment [3] deals with T1, 5-HT1A receptor. As to the kind of experiment: cAMP accumulation assay, 5-HT1A function. In kind it is cell-based. The note with it: for pIC50: cells marked IC50 (antagonist), read-out: 5-HT1A Function cAMP IC50; for Emax / 5-HT1A Function cAMP (Emax): in brackets after EC50 or IC50; for Emax: read-out: 5-HT1A Function cAMP (Emax); for pEC50: cells marked EC50 (agonist).

Another experiment concerns the target T3, serotonin transporter (Rattus norvegicus, UniProt P31652).
T3 construct: displace ^3H-paroxetine from male rat cortical membranes; from tissue; host or cells: male rat cortical membranes
As to the kind of experiment: 5-HT transporter affinity: displacement of 3H-paroxetine from male rat cortical membranes. In kind it is binding. The note with it: displacement of 3H-paroxetine; male rat cortical membranes; read-out: 5-HT Transporter Affinity Ki.

Where [4] appears, read: maximum inhibitory effect, in brackets after IC50, read-out: 5-HT1A Function GTPγS (Imax).
Where [5] appears, read: maximum stimulatory effect, in brackets after EC50, read-out: 5-HT1A Function GTPγS (Emax).
The mark [6] stands for this setting: maximum inhibitory effect, in brackets after IC50.

Molecules are shown by their SMILES. pEC50, pIC50, pKi: −log10 of the molar value. Like-named read-outs stand apart in the source and are kept apart here.

T3 sequence (P31652 whole entry): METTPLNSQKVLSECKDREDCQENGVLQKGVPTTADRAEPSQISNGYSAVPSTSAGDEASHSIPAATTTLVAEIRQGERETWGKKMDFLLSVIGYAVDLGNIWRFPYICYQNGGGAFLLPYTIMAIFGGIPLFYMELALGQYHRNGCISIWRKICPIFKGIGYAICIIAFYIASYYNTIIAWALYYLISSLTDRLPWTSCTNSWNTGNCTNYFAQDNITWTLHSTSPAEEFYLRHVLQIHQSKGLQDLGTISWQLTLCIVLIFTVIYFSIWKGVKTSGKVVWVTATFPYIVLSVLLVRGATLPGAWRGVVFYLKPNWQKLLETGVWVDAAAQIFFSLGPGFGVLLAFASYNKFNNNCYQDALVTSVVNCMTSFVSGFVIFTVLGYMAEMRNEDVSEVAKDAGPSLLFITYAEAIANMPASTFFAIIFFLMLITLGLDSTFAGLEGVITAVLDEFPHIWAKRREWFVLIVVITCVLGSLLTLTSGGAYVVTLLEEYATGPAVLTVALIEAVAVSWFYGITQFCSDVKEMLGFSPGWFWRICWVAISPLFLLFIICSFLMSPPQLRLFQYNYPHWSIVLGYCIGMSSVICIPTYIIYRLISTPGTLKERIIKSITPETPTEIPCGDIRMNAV

Take `CCCN(CCc1c[nH]c2ccc(F)cc12)C1COc2c(F)ccc(C(N)=O)c2C1` (centres unmarked) [Compound 77, 8-fluoro-3-[[2-(5-fluoro-1H-indol-3-yl)ethyl](propyl)amino]chromane-5-carboxamide]: the pKi (in general, the negative decadic logarithm of the Ki, by convention in mol/L) at 5-HT1A receptor [1] is 7.74; on serotonin transporter, 7.22. Further, the pIC50 – broadly, the negative decadic logarithm of the IC50, by convention in mol/L – in experiment [2] was 5.59; at 5-HT1A receptor [3] it was 7.17. Moreover, the Emax in experiment [2] (setting [4]) was found to be 100%; on 5-HT1A receptor [3], 0%.

For `CCCN(CCCc1c[nH]c2ccccc12)C1CCc2cccc(OC)c2C1` (centres unmarked) [Compound 50, N-[3-(1H-indol-3-yl)propyl]-8-methoxy-N-propyl-1,2,3,4-tetrahydronaphthalen-2-amine], the figures for the pKi on 5-HT1A receptor [1] and at serotonin transporter were 8.67 and 7.85, respectively. Moreover, the pEC50 (commonly −log10 of the EC50, conventionally taken in molar units) was 8.40 in experiment [2] and 8.60 on 5-HT1A receptor [3]. Besides, the Emax in experiment [2] (setting [5]) was found to be 90%; at 5-HT1A receptor [3], 98%.

With `O=C(NC1CCC1)c1ccc(F)c2c1CC(N(CCCc1c[nH]c3ccc(F)cc13)C1CCC1)CO2` (centres unmarked) [Compound 65, N-cyclobutyl-3-{cyclobutyl[3-(5-fluoro-1H-indol-3-yl)propyl]amino}-8-fluorochromane-5-carboxamide], the pKi is 6.67 at 5-HT1A receptor [1] and 8.40 on serotonin transporter. In addition, the pIC50 was 7.04 in experiment [2] and 6.45 at 5-HT1A receptor [3]. Moreover, the results for the Emax (in experiment [2] (setting [4]); at 5-HT1A receptor [3]) were 48% and 0%, respectively.

With `CCN(CCCc1coc2ccccc12)C1COc2cccc(OC)c2C1` (centres unmarked) [Compound 21, N-[3-(1-benzofuran-3-yl)propyl]-N-ethyl-5-methoxychroman-3-amine], the pKi on 5-HT1A receptor [1] is 9.42; on serotonin transporter it was 6.51. Further, the pEC50 in experiment [2] was 7.55; on 5-HT1A receptor [3], 8.02. Also, the Emax in experiment [2] (setting [5]) is 98.5%; at 5-HT1A receptor [3], 90.5%.

`COc1cccc2c1CC(N(CCCc1c[nH]c3ccc(F)cc13)CC1CC1)CO2` (centres unmarked) [Compound 37, N-(cyclopropylmethyl)-N-[3-(5-fluoro-1H-indol-3-yl)propyl]-N-(5-methoxy-3,4-dihydro-2H-chromen-3-yl)amine]: the pKi on 5-HT1A receptor [1] is 8.77; on serotonin transporter, 8.37. In addition, the pEC50 in experiment [2] was 6.84; at 5-HT1A receptor [3], 7.85. The results for the Emax (in experiment [2] (setting [5]); at 5-HT1A receptor [3]) were 88% and 91%, respectively.

On to `CCCN(CCCc1c[nH]c2ccc(F)cc12)C1COc2c(F)ccc(C(=O)NC)c2C1` (centres unmarked) [Compound 90, 8-fluoro-3-[[3-(5-fluoro-1H-indol-3-yl)propyl](propyl)amino]-N-methylchromane-5-carboxamide], for which the pKi is 9.09 on 5-HT1A receptor [1] and 8.47 on serotonin transporter. This compound also showed a pEC50 in experiment [2] of 7.46. Also, the pIC50 was 6.21 in experiment [2] and 7.13 at 5-HT1A receptor [3]. The Emax turned out to be 33% in experiment [2] (setting [4]), 47% in experiment [2] (setting [5]) and 0% on 5-HT1A receptor [3].

For `CC(CCc1c[nH]c2ccc(F)cc12)N(CC1CC1)C1COc2c(F)ccc(C(N)=O)c2C1` (single isomer, unassigned; (-)) [Compound 15a, (−)-3-{(cyclopropylmethyl)[3-(5-fluoro-1H-indol-3-yl)-1-methylpropyl]amino}-8-fluorochromane-5-carboxamide], the figures for the pKi at 5-HT1A receptor [1] and at serotonin transporter were 8.73 and 7.99, respectively. Also, the values for the pIC50 (in experiment [2]; at 5-HT1A receptor [3]) were 6.48 and 7.14, respectively. Also, in experiment [2] (setting [4]), the Emax was found to be 100%. The compound also had a 5-HT1A Function cAMP (Emax) on 5-HT1A receptor [3] of 0%.

For the compound `CNC(=O)c1ccc(F)c2c1CC(N(CCCCc1c[nH]c3ccc(F)cc13)CC1CC1)CO2` (centres unmarked) [Compound 94, 3-{(cyclopropylmethyl)[4-(5-fluoro-1H-indol-3-yl)butyl]amino}-8-fluoro-N-methylchromane-5-carboxamide], the pKi on 5-HT1A receptor [1] was 8.78; at serotonin transporter it was 8.90. Further, the values for the pIC50 (in experiment [2]; on 5-HT1A receptor [3]) were 6.85 and 7.23, respectively. Moreover, the Emax in experiment [2] (setting [4]) amounted to 100%; at 5-HT1A receptor [3], 0%.

Turning to `CCCN(CC1CCc2[nH]c3ccc(F)cc3c2C1)[C@H]1COc2c(F)ccc(C(N)=O)c2C1` (single isomer, unassigned; (-)) [Compound 177a], the pKi at 5-HT1A receptor [1] is 7.22; on serotonin transporter it was 5.28. The pIC50 in experiment [2] is 5.53; at 5-HT1A receptor [3], 6.08. This compound returned a 5-HT1A Function GTPγS (Imax) in experiment [2] (setting [6]) of 100%. For the same compound, the Emax on 5-HT1A receptor [3] was found to be 0%.

Take `CCCN(CCCc1c[nH]c2ccc(F)cc12)C1COc2c(F)ccc(C(N)=O)c2C1` (single isomer, unassigned; (+)) [Compound 2b, (+)-8-fluoro-3-[[3-(5-fluoro-1H-indol-3-yl)propyl](propyl)amino]-3,4-dihydro-2H-chromene-5-carboxamide]: the pKi is 8.66 on 5-HT1A receptor [1] and 8.41 on serotonin transporter. Besides, the pEC50 in experiment [2] is 7.44; on 5-HT1A receptor [3] it was 7.70. For the same compound, in experiment [2] (setting [5]), the Emax was 80%. This compound also showed a 5-HT1A Function cAMP (Emax) at 5-HT1A receptor [3] of 97%.

Take `COc1cccc2c(CCCCN(CC3CC3)C3COc4c(F)ccc(C(N)=O)c4C3)coc12` (centres unmarked) [Compound 170, 3-{(cyclopropylmethyl)[4-(7-methoxy-1-benzofuran-3-yl)butyl]amino}-8-fluorochromane-5-carboxamide]: the pKi at 5-HT1A receptor [1] is 9.14; at serotonin transporter, 6.34. In addition, the pIC50 was 6.80 in experiment [2] and 6.99 at 5-HT1A receptor [3]. The Emax in experiment [2] (setting [4]) stood at 100%; on 5-HT1A receptor [3] it was 0%.

With `NC(=O)c1ccc(F)c2c1CC(N(CC1CCc3[nH]c4ccc(F)cc4c3C1)C1CCC1)CO2` (single isomer, unassigned; (-)) [Compound 174d, (−)-3-{cyclobutyl[(6-fluoro-2,3,4,9-tetrahydro-1H-carbazol-3-yl)methyl]amino}-8-fluorochromane-5-carboxamide], the pKi at 5-HT1A receptor [1] was 7.13; on serotonin transporter, 6.49. Besides, the results for the pIC50 (in experiment [2]; on 5-HT1A receptor [3]) were 5.32 and 6.52, respectively. The 5-HT1A Function GTPγS (Imax) in experiment [2] (setting [6]) was determined as 100%. This compound showed a 5-HT1A Function cAMP (Emax) on 5-HT1A receptor [3] of 0%.

As for `CCCN(CCCCc1c[nH]c2ccc(F)cc12)C1COc2c(F)ccc(C(N)=O)c2C1` (centres unmarked) [Compound 81, 8-fluoro-3-[[4-(5-fluoro-1H-indol-3-yl)butyl](propyl)amino]chromane-5-carboxamide], the pKi on 5-HT1A receptor [1] was 8.33; at serotonin transporter, 8.21. The values for the pIC50 (in experiment [2]; on 5-HT1A receptor [3]) were 6.11 and 6.90, respectively. Further, the Emax in experiment [2] (setting [4]) is 100%; on 5-HT1A receptor [3], 0%.

Consider `CC(C)NC(=O)c1ccc(F)c2c1CC(N(CCCc1c[nH]c3ccc(F)cc13)C1CCC1)CO2` (centres unmarked) [Compound 63, 3-{cyclobutyl[3-(5-fluoro-1H-indol-3-yl)propyl]amino}-8-fluoro-N-isopropylchromane-5-carboxamide], for which the values for the pKi at 5-HT1A receptor [1] and on serotonin transporter were 7.34 and 8.45, respectively. In addition, the results for the pIC50 (in experiment [2]; on 5-HT1A receptor [3]) were 5.66 and 6.35, respectively. The Emax in experiment [2] (setting [4]) was 76%; on 5-HT1A receptor [3] it was 0%.

With `N#Cc1ccc2[nH]cc(CCCN(C3CCC3)[C@H]3COc4c(F)ccc(C(N)=O)c4C3)c2c1` [Compound 97b, (3R)-3-[[3-(5-cyano-1H-indol-3-yl)propyl](cyclobutyl)amino]-8-fluorochromane-5-carboxamide], the pKi on 5-HT1A receptor [1] is 8.70; on serotonin transporter, 8.61. The pIC50 in experiment [2] is 6.50; on 5-HT1A receptor [3], 7.15. Further, the Emax in experiment [2] (setting [4]) is 100%; on 5-HT1A receptor [3] it was 0%.

As to `NC(=O)c1ccc(F)c2c1CC(N(CCc1c[nH]c3ccc(F)cc13)CC1CC1)CO2` (centres unmarked) [Compound 78, 3-{(cyclopropylmethyl)[2-(5-fluoro-1H-indol-3-yl)ethyl]amino}-8-fluorochromane-5-carboxamide], the negative-log Ki (pKi) at 5-HT1A receptor [1] is 8.18; on serotonin transporter it was 7.08. Further, the values for the pIC50 (in experiment [2]; on 5-HT1A receptor [3]) were 6.42 and 7.01, respectively. In addition, the Emax stood at 100% in experiment [2] (setting [4]) and 0% at 5-HT1A receptor [3].

For `CN(C)C(=O)c1ccc(F)c2c1CC(N(CCCc1c[nH]c3ccc(F)cc13)C1CCC1)CO2` (centres unmarked) [Compound 73, 3-{cyclobutyl[3-(5-fluoro-1H-indol-3-yl)propyl]amino}-8-fluoro-N,N-dimethylchromane-5-carboxamide], the pKi was 6.43 on 5-HT1A receptor [1] and 7.54 on serotonin transporter. Besides, the pIC50 was 5.24 in experiment [2] and 6.81 at 5-HT1A receptor [3]. Moreover, the figures for the Emax (in experiment [2] (setting [4]); at 5-HT1A receptor [3]) were 40% and 0%, respectively.

Consider `NC(=O)c1ccc(Cl)c2c1CC(N(CCCc1c[nH]c3ccc(F)cc13)C1CCC1)CO2` (centres unmarked) [Compound 7, 8-chloro-3-{cyclobutyl[3-(5-fluoro-1H-indol-3-yl)propyl]amino}chromane-5-carboxamide], for which the pKi on 5-HT1A receptor [1] was 8.21; at serotonin transporter, 8.49. In addition, the figures for the pIC50 (in experiment [2]; on 5-HT1A receptor [3]) were 5.78 and 7.22, respectively. Further, the results for the Emax (in experiment [2] (setting [4]); at 5-HT1A receptor [3]) were 100% and 0%, respectively.

Source of the values: patent publication US20050032873A1, “3-Amino chroman and 2-amino tetralin derivatives” (Wyeth, priority 2003, published 2005).
